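Five compound concentrations were applied to cells in 96-well plates for 48 hours; endpoints were derived by simple linear interpolation of the resulting dose-response curve. Abbreviation: GI50, concentration required for 50% inhibition of growth. The concentration for full growth arrest is given as TGI.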
Tests used:
Assay in all cases: DTP human tumour cell line panel, 48 h
MOLT-4 leukemia = test system: MOLT-4 leukemia
BT-549 breast = test system: BT-549 breast
DU-145 prostate = test system: DU-145 prostate
RPMI-8226 leukemia = test system: RPMI-8226 leukemia
NCI-H522 lung = test system: NCI-H522 lung
IGROV1 ovarian = test system: IGROV1 ovarian
HCC-2998 colon = test system: HCC-2998 colon
SK-OV-3 ovarian = test system: SK-OV-3 ovarian
SF-539 CNS = test system: SF-539 CNS
SF-295 CNS = test system: SF-295 CNS

| Compound | GI50 (MOLT-4 leukemia) [µM] | TGI (MOLT-4 leukemia) [µM] | GI50 (BT-549 breast) [µM] | TGI (BT-549 breast) [µM] | GI50 (DU-145 prostate) [µM] | TGI (DU-145 prostate) [µM] | GI50 (RPMI-8226 leukemia) [µM] | TGI (RPMI-8226 leukemia) [µM] | GI50 (NCI-H522 lung) [µM] | TGI (NCI-H522 lung) [µM] | GI50 (IGROV1 ovarian) [µM] | TGI (IGROV1 ovarian) [µM] | GI50 (HCC-2998 colon) [µM] | TGI (HCC-2998 colon) [µM] | GI50 (SK-OV-3 ovarian) [µM] | TGI (SK-OV-3 ovarian) [µM] | GI50 (SF-539 CNS) [µM] | TGI (SF-539 CNS) [µM] | GI50 (SF-295 CNS) [µM] | TGI (SF-295 CNS) [µM] |
| --- | --- | --- | --- | --- | --- | --- | --- | --- | --- | --- | --- | --- | --- | --- | --- | --- | --- | --- | --- | --- |
| O=C(COc1cccc(/C=C2\CSc3ccccc3C2=O)c1)c1ccc(Cl)cc1 | 1.07 | 3.44 | 1.69 | 3.39 | 2.31 | 5.61 | > 100 | > 100 | 1.61 | 3.67 | 2.02 | 4.26 | 1.47 | 2.8 | 8.97 | 41.9 | 3.05 | 8.22 | 1.71 | 3.44 |
| Nc1ncnc2c1cnn2Cc1ccc(Cl)cc1 | – | > 100 | 72.1 | > 100 | – | > 100 | > 100 | > 100 | – | > 100 | > 100 | > 100 | – | > 100 | > 100 | > 100 | 67.4 | > 100 | – | > 100 |
| C=C1C(=O)O[C@H]2[C@H]1CC/C(COC(=O)c1ccccc1)=C\CC[C@@]1(C)O[C@@H]21 | 2.14 | 7.57 | 1.23 | 2.94 | 1.06 | 2.29 | 0.375 | 2.44 | 1.06 | 2.79 | 0.787 | 2.66 | 2.35 | 4.95 | 11.8 | 24 | 0.662 | 2.1 | 3.83 | 16 |
| COc1ccc(-c2cc(=O)c3c(OC)c(OC)c(OC)c(OC)c3o2)c(OC)c1 | – | 86.1 | – | > 100 | – | > 100 | – | > 100 | – | 29.1 | – | > 100 | – | 46.6 | – | > 100 | – | > 100 | – | 46 |
| C/C(=N\N=C(N)N)C(CN(C)C)C(c1ccccc1)c1c(O)c2ccccc2oc1=O (stereo not given) | – | > 100 | – | > 100 | – | > 100 | – | > 100 | – | > 100 | – | > 100 | – | > 100 | – | > 100 | – | > 100 | – | > 100 |
| NC1CCC(N[C@@H]2C[C@H]2c2ccccc2)CC1 (stereo not given in full) | 60 | > 100 | > 100 | > 100 | > 100 | > 100 | 41.8 | > 100 | > 100 | > 100 | 92.5 | > 100 | > 100 | > 100 | > 100 | > 100 | 15.3 | 52 | > 100 | > 100 |
| COc1cc2c(cc1OCCCCOc1ccc(-c3nc4ccccc4s3)cc1)N=C[C@@H]1CCCN1C2=O | 0.924 | 3.86 | 0.93 | 2.38 | 0.426 | 2.05 | 0.337 | 1.42 | 0.565 | 1.93 | 1.28 | 6.08 | 0.82 | 2.28 | 1.92 | 5.08 | 0.768 | 2 | 1.22 | 8.81 |
| O=C(Nc1cccc(-n2cc(-c3ccncc3)c(-c3ccc(O)c(Cl)c3)n2)c1)Nc1cccc(C(F)(F)F)c1 | 1.68 | 4.94 | 1.72 | 4.08 | 3.01 | 11.8 | 1.77 | 5.13 | 1.55 | 4.31 | 2.47 | 5.98 | 4.3 | 37.5 | 3.59 | 23.1 | 1.64 | 5.18 | 1.97 | 5.47 |
| C=C1C[C@@]2(C)C(CC[C@]3(C)C2CC=C2C4CC(C)(C)C[C@@H](OC(=O)/C(C)=C\C)[C@]4(C(=O)O)CC[C@]23C)C(C)(C)C1=O (stereo not given in full) | 2.91 | 24.8 | 1.91 | 3.68 | 4.37 | 16 | 1.42 | 5.69 | 2.76 | 10.1 | 3.05 | 10.1 | 2.02 | 4.52 | 14.3 | 33.4 | 2.75 | 8.55 | 2.95 | 11.1 |
| CCNCCCn1c2c(c3ccc([N+](=O)[O-])cc3c1=O)C(=O)c1cc(OC)cnc1-2 | 0.029 | 0.25 | 0.172 | 1.2 | 0.0558 | 1.16 | 0.0813 | 0.976 | 0.0361 | 0.898 | 0.184 | 1.45 | 0.151 | 0.66 | 0.0589 | 1.62 | 0.0696 | 0.579 | 0.0421 | 0.496 |
| CCOC(=O)c1cc(C(=O)c2cc(OC)c(OC)c(OC)c2)n2ccccc12 | 0.182 | > 100 | 0.0597 | > 100 | 0.175 | > 100 | 0.121 | > 100 | 0.0577 | > 37.1 | 2.96 | > 100 | 0.37 | > 100 | 0.164 | > 100 | 0.103 | 0.863 | 0.0558 | 14.6 |
| COC1=C(Br)C(=O)C2=C(C1=O)C1C3=C(C(=O)C=CC3=O)C2c2ccccc21 (stereo not given) | 4.99 | > 100 | 16.8 | 38.3 | 21.4 | 53.8 | 4.04 | > 100 | 3.26 | 14.4 | 9.4 | 45.1 | 0.565 | 19.5 | 45.6 | > 100 | 2.92 | 8.79 | 24.1 | 48.9 |
| COc1ccc(OC)c2c(=S)c3ccccc3[nH]c12 | – | 98.4 | – | > 100 | – | > 100 | – | > 100 | – | > 100 | – | > 100 | – | > 100 | – | > 100 | – | > 100 | – | > 100 |

Reference: PubChem BioAssay (NCI)
